pIC50: −log10 of the molar value. The source made the active and inactive calls. No cut-off for these calls is given here.
Experiments:
[1] = Antiinflammatory activity in human neutrophils assessed as inhibition of fMLP/CB-induced elastase release after 5 mins by spectrophotometric analysis; assay type: functional, cell-based; details: Neutrophil
[2] = Antiinflammatory activity in human neutrophils assessed as inhibition of fMLP/CB-induced superoxide generation after 5 mins by spectrophotometric analysis; assay type: functional, cell-based; details: Neutrophil
[3] = Antiinflammatory activity in human neutrophils assessed as inhibition of fMLP/CB-induced elastase release at 10 ug/mL after 5 mins by spectrophotometric analysis relative to control; assay type: functional; details: Neutrophil
[4] = tested on: 3T3-L1; test: Potentiation of insulin-stimulated glucose consumption in mouse 3T3L1 cells assessed as glucose concentration in culture medium at 30 ug/mL after 24 hrs (reference value: 427.4 mg/dL); assay type: functional
[5] = Antiinflammatory activity in human neutrophils assessed as inhibition of fMLP/CB-induced superoxide generation at 10 ug/mL after 5 mins by spectrophotometric analysis relative to control; assay type: functional; details: Neutrophil
[6] = tested on: 3T3-L1; test: Potentiation of insulin-stimulated glucose consumption in mouse 3T3L1 cells at 30 ug/mL after 24 hrs; assay type: functional, cell-based
[7] = tested on: 3T3-L1; test: Inhibition of lipid accumulation in mouse 3T3L1 cells at 30 ug/mL after 8 days by Oil red O staining-based microscopic analysis relative to control; assay type: functional; details: 3T3-L1, 192 h

Compound	IC50 [1]	pIC50 [2]	pIC50 [1]	IC50 [2]	inhibition at 10 µg/mL [3]	Activity [4]	inhibition at 10 µg/mL [5]	Activity [6]	inhibition at 30 µg/mL [7]
CC(C)CCC[C@](C)(O)c1ccc(C(=O)O)cc1O	> 10 µg/mL	4.56	–	–	2.56%	381.4 mg/dL	60.2%	–	–
C/C(=C\CCC(C)C)c1ccc(CO)cc1O	–	5.21	5.06	–	84.3%	–	97.8%	–	–
Cc1cc(O)cc(Oc2cc(C)cc(O)c2)c1 [DIORCINOL]	> 10 µg/mL	4.91	–	–	39.8%	–	92%	–	–
CO[C@@](C)(CCCC(C)C)c1ccc(CO)cc1O [(7S)-(+)-7-O-METHYLSYDONOL]	> 10 µg/mL	4.86	–	–	29.8%	–	69%	Active	–
C/C(=C\CCC(C)CO)c1ccc(CO)cc1O (stereo unspecified)	> 10 µg/mL	4.67	–	–	6.68%	–	71.7%	Active	–
COC(=O)c1c(O)ccc2oc3cc(CO)cc(O)c3c(=O)c12 [SYDOWININ B]	–	4.67	4.90	–	85%	–	66.2%	–	–
COC(=O)c1cccc2oc3cc(CO)cc(O)c3c(=O)c12 [SYDOWININ A]	> 10 µg/mL	–	–	> 10 µg/mL	28.7%	–	38.1%	–	–

Further lines, with some results ahead:

IC50 [1]	pIC50 [2]	pIC50 [1]	IC50 [2]	Compound	inhibition at 10 µg/mL [3]	Activity [4]	inhibition at 10 µg/mL [5]	Activity [6]	inhibition at 30 µg/mL [7]
–	5.22	5.18	–	COC(=O)[C@@H]1c2c(oc3cc(CO)cc(O)c3c2=O)C=C[C@H]1O	98.9%	–	102%	–	–
–	5.28	4.79	–	CC(C)CCC[C@](C)(O)c1ccc(CO)cc1O [(S)-(+)-SYDONOL]	65.3%	324.6 mg/dL	87%	Active	≤ 48%
–	5.90	5.25	–	CNC(=O)c1cc(Oc2ccc(NC(=O)Nc3ccc(Cl)c(C(F)(F)F)c3)cc2)ccn1 [SORAFENIB]	83%	–	70.9%	–	–

Source: ChEMBL document CHEMBL2396565, “An epigenetic modifier enhances the production of anti-diabetic and anti-inflammatory sesquiterpenoids from Aspergillus sydowii” (Bioorg Med Chem, 2013)
